Measurements: patent US10745393B2, “Small molecular probes, processes and use thereof” (JAWAHARLAL NEHRU CENTRE FOR ADVANCED SCIENTIFIC RESEARCH, priority 2014, dated 2020)
Several values for one entry are separate records, joined by “and”; a condition that tells them apart may be missing. Equal values may be shown once. Entries after “also recorded” stand apart in the source; their conditions may differ.

Experiments:
[1] = Absorption, emission and quantum yield of probes in Tris-HCl buffer without DNA; assay type: physicochemical
(D1)mix [2] = test: Thermal denaturation (UV-melting) of dsDNA with probe TC; assay type: binding
(AT)10 [3] = test: as above; assay type: binding
(D1)mix [4] = test: Fluorescence response / quantum yield of probes with dsDNA (D1)mix; assay type: binding
[5] = Absorption, emission and quantum yield of probes without Aβ42 aggregates; assay type: physicochemical
calf-thymus DNA (ct-DNA) = test: Fluorescence response in presence of calf-thymus DNA; assay type: binding; settings: TC 10 μM, ct-DNA 200 μg/mL
Excerpt: Furthermore, the fluorescence response of TC in presence of calf-thymus DNA (ct-DNA) is also studied.

(GC)10 [6] = test: Agarose gel electrophoresis staining of dsDNA band; assay type: binding; settings: 3% agarose gel, about 0.6 μg dsDNA, UV-illumination
[7] = test system: ssDNA oligonucleotides (dA10, dT10, dG10 and dC10); test: Fluorescence emission in presence of ssDNA oligonucleotides; assay type: binding; settings: probe 10 μM, Tris-HCl buffer
(D2)mix [8] = test: Agarose gel electrophoresis staining of dsDNA band; assay type: binding; settings: 3% agarose gel, about 0.6 μg dsDNA, UV-illumination
(D1)mix [9] = test: Agarose gel electrophoresis staining of dsDNA band; assay type: binding; settings: 3% agarose gel, about 0.6 μg dsDNA, UV-illumination
d(AATT)5 = test: Absorption / fluorescence response with self-complementary d(AATT)5 duplex; assay type: binding
[10] = biological target: T1, islet amyloid polypeptide (IAPP) aggregates (Homo sapiens, UniProt P10997); test: Selectivity: fluorescence with IAPP aggregates; assay type: binding; settings: IAPP aggregates 20 μM
T1 construct: A 0.1 mg (Merck, calbiochem) sample of amylin is dissolved in 100 μL of acetonitrile; purchased Merck, calbiochem
T1 sequence (P10997 34-70 limits assumed): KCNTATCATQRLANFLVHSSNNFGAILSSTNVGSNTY

HepG2 cells = test: Confocal fluorescence staining of mammalian cells at low probe concentration; assay type: cell-based, human; settings: (FIG. 44 legend 2 μM)
HEK293 cells [11] = test: Nuclear staining with cytoplasmic marker α-tubulin; assay type: cell-based; settings: TC 5 μM
HEK293 cells [12] = test: DNase I and RNase digestion studies; assay type: cell-based; settings: 2 hours
Protocol: DNase I is known to degrade nuclear DNA while RNase degrades RNA in the cytoplasm by catalyzing phosphodiester bonds cleavage. HEK293 cells are fixed with chilled methanol for about 1 minute at room temperature and permeabilized with 0.1% Triton X-100 in PBS for about 2×5 minutes. After rinsing with PBS twice, for one set of experiments, cells are treated with probe TC (5 μM) for about 15 min at room temperature in three adjacent wells. A total of about 200 μL PBS (as control experiment), about 100 μg/mL DNase I (Sigma), or about 30 μg/ml DNase-Free RNase (GE) is added into the three adjacent wells and incubated at about 37° C. for about 2 hours. For another set of experiments, instead of treating with probe TC, cells are only treated with about 200 μL PBS (as control experiment), about 100 μg/ml DNase I (Sigma), or about 30 μg/mL DNase-Free RNase (GE) by adding into the three adjacent wells and incubating at about 37° C. for about 2 hours. […] After two more washes in PBS with 0.1% Triton X-100, the cover slips are washed in PBS, rinsed in ddH2O and briefly dipped in 100% ethanol. After a quick dry, cover slips are mounted with 70% glycerol. Images are captured using a Carl Zeiss Laser Scanning Microscope (LSM510 META) using an equal exposure time for control, DNase I, and RNase experiments. Experiments are done in duplicate.

[13] = biological target: α-Synuclein (α-Syn) aggregates (Homo sapiens, UniProt P37840); test: Selectivity: fluorescence with α-synuclein aggregates; assay type: binding; settings: α-Syn aggregates 20 μM
(AT)20 [14] = test: Fluorescence response / quantum yield of probes with dsDNA (AT)20; assay type: binding
Aβ42 aggregates [15] = biological target: T2, Aβ42 aggregates (Homo sapiens, UniProt P05067); test: Binding saturation assay (fluorescence) for binding constant
T2 sequence (P05067 672-713 limits assumed): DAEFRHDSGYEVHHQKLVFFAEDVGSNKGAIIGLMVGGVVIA

(AT)20 [16] = test: Thermal denaturation (UV-melting) of dsDNA with probe TC; assay type: binding
(AT)10 [17] = test: Absorption / fluorescence response of probes with dsDNA (AT)10; assay type: binding; settings: probe 10 μM
(D2)mix [18] = test: Fluorescence response of probes with dsDNA (D2)mix; assay type: binding
HeLa S3 cells = test: Confocal fluorescence nuclear staining, co-staining with Hoechst 33258; assay type: cell-based; settings: TC 5 μM
Aβ42 aggregates [19] = biological target: T2, Aβ42 aggregates; test: Absorption / fluorescence response with Aβ42 fibrillar aggregates; assay type: binding
(GC)10 [20] = test: Thermal denaturation (UV-melting) of dsDNA with probe TC; assay type: binding
(GC)10 [21] = test: Fluorescence response / quantum yield of probes with dsDNA (GC)10; assay type: binding
cells = test: Comparison of DNA dyes: cell permeability; assay type: cell-based; settings: Table 3, probe of the disclosure
Plasmodium falciparum = test: Live cell fluorescence imaging of malaria parasites in erythrocytes; assay type: cell-based, P. falciparum 3D7 strain; settings: (FIG. 38 legend 1 and 2 μM), 30 minutes
[22] = biological target: ThT/Aβ42 aggregate complex (Homo sapiens, UniProt P05067); test: ThT displacement / FRET assay; assay type: binding; settings: decay at 483 nm, enhancement at 654 nm
ThT/Aβ42 aggregate complex, sequence (P05067 672-713 limits assumed, one chain of several): as the sequence (P05067 672-713 limits assumed) above

[23] = test system: (AT)20-Hoechst 33258 complex; test: Competitive binding / FRET / CD study with preformed Hoechst complex; settings: Hoechst 4 μM + (AT)20, TC 0 to 40 μM, CD signal
[24] = biological target: Aβ42 fibrillar aggregates (Homo sapiens, UniProt P05067); test: pH-dependent colorimetric and fluorometric response; assay type: binding; settings: TC 10 μM, PBS buffer
Aβ42 fibrillar aggregates, sequence (P05067 672-713 limits assumed): as above

[25] = Tris-HCl buffer (100 mM, pH 7.4)
[26] = increasing concentrations of TC (1 μM to 20 μM), FIG. 10

CCN(CC)c1ccc2cc(/C=C/c3sc4ccccc4[n+]3C)c(=O)oc2c1 [TC, (E)-3-(2-(N-methyl-benzo[d]thiazol-2-yl)vinyl)-7-(diethylamino)-2H-chromen-2-one]
ΦF in Buffer ([1]; Tris-HCl buffer (100 mM, pH 7.4), absence of DNA): 0.03 | emission (fluorescence) maxima ([1]; Tris-HCl buffer, no DNA, very weak fluorescence): 641 nm | absorption maxima ([1]; probe 10 μM, Tris-HCl buffer, no DNA): 528 nm | Tm(DNA + TC) ((D1)mix [2]): 61.6 °C | Tm(DNA + TC) ((AT)10 [3]): 25.6 °C | fluorescence enhancement in presence of (D1)mix ((D1)mix [4]; TC 10 μM, DNA 0 to 12 μM): ~6 fold | ΦF with (D1)mix ((D1)mix [4]; [25]): 0.11 | fluorescence enhancement in presence of (D1)mix ((D1)mix [4]; [26]): ~6 fold | absorption maximum TC/chloroform ([5]; Experiment): 561 nm | absorption maximum TC/water ([5]; Experiment): 537 nm | absorption maximum in absence of Aβ42 aggregates ([5]; PBS buffer (10 mM, pH 7.4)): 537 nm | emission maximum in absence of Aβ42 aggregates ([5]; PBS buffer, very weak fluorescence): 638 nm | fluorescence response in presence of ct-DNA (calf-thymus DNA (ct-DNA)): strong fluorescence enhancement | gel staining of (GC)10 band ((GC)10 [6]): not stained | emission behaviour in presence of ssDNA [7]: do not show significant changes in the emission behaviour | gel staining of (D2)mix band ((D2)mix [8]): strong fluorescence intensity | gel staining of (D1)mix band ((D1)mix [9]): strong fluorescence intensity | fluorescence enhancement in presence of d(AATT)5 (d(AATT)5): ~16 folds | fluorescence enhancement with IAPP aggregates [10]: does not lead to significant fluorescence enhancements | fluorescence / uptake in HepG2 cells (HepG2 cells): does not show any detectable fluorescence; also recorded: No detectable uptake | co-localization with cytoplasmic marker α-tubulin (HEK293 cells [11]): does not co-localize with cytoplasmic marker α-tubulin | fluorescence nuclear staining after DNase I digestion (HEK293 cells [12]; DNase I about 100 μg/mL): almost completely diminished | fluorescence nuclear staining after RNase digestion (HEK293 cells [12]; RNase about 30 μg/mL): does not affect the fluorescence staining | fluorescence enhancement with α-Syn aggregates [13]: does not lead to significant fluorescence enhancements | fluorescence enhancement in presence of (AT)20 ((AT)20 [14]; TC 10 μM, DNA 0 to 12 μM): ~16 fold | ΦF with (AT)20 ((AT)20 [14]; [25]): 0.36 | comparative fluorescence response in presence of (AT)20 ((AT)20 [14]; dye 10 μM, Tris-HCl buffer): excellent fluorescence marker | probe concentration at which fluorescence reaches saturation ((AT)20 [14]; fixed dsDNA 12 μM): 18 to 22 µM | fluorescence enhancement in presence of (AT)20 ((AT)20 [14]; [26]): ~16 fold | association constant Ka (Aβ42 aggregates [15]; 2 μM of Aβ42 aggregates): 1.72e+07 M⁻¹ | Kd (Aβ42 aggregates [15]; fluorescence saturation curve, Aβ42 aggregates 10 μM (QC) or 2 μM (TC), read-out: dissociation constant Kd): 58 ± 1.2 nM | Tm(DNA + TC) ((AT)20 [16]): 49.7 °C | emission maxima in presence of (AT)10 ((AT)10 [17]): 616 nm | fluorescence enhancement in presence of (AT)10 ((AT)10 [17]; DNA 0 to 12 μM): ~8 fold | fluorescence enhancement in presence of (D2)mix ((D2)mix [18]; TC 10 μM, DNA 0 to 12 μM): ~1.5 fold | fluorescence enhancement in presence of (D2)mix ((D2)mix [18]; [26]): ~1.5 fold | nuclear staining of HeLa S3 cells (HeLa S3 cells): selective targeting to the cell nucleus | absorption maximum TC/fibril (Aβ42 aggregates [19]; Experiment): 595 nm | quantum yield upon binding with Aβ42 aggregates (Aβ42 aggregates [19]; TC 2 μM): 40% | persistence of fluorescence of stained Aβ42 aggregates (Aβ42 aggregates [19]; aging): retain red fluorescence even after 50 days of aging | emission maximum in presence of Aβ42 aggregates (Aβ42 aggregates [19]; probe 2 μM): 654 nm | fluorescence enhancement in presence of Aβ42 aggregates (Aβ42 aggregates [19]; probe 2 μM, PBS buffer): ~30 fold | Tm(DNA + TC) ((GC)10 [20]): 60.3 °C | ΦF with (GC)10 ((GC)10 [21]; [25]): 0.04 | fluorescence change in presence of (GC)10 ((GC)10 [21]; probe 10 μM): does not show such fluorescence enhancement | Cell permeability (cells): Permeable | staining of trophozoite stage parasites in red blood cells (Plasmodium falciparum): specifically binds to the parasite cells within the red blood cells; also recorded: accumulated specifically in the nucleus of the parasitized red blood cell | displacement of ThT from ThT/Aβ42 aggregate complex [22]: effective displacement of ThT by TC | competition with Hoechst for minor groove binding site [23]: not competing with Hoechst for binding site in the minor groove of dsDNA | pH range in which colorimetric and emission properties with Aβ42 aggregates are unaffected / usable [24]: 3 to 8 and 2-8
